In patent US8629149B2, “Oxopiperazine derivatives for the treatment of pain and epilepsy” (Zalicus Pharmaceuticals Ltd., priority 2009, dated 2014):
pIC50: −log10 of the molar value.

Columns and labels:
[1] = tested on: mice; assay: Mouse rotarod assay; type: in vivo
Experimental: (§1) To assess a compound's undesirable side effects (toxicity), animals were monitored for overt signs of impaired neurological or muscular function. In mice, the rotarod procedure (Dunham and Miya, J. Am. Pharmacol. Assoc. 46:208-209 (1957)) is used to disclose minimal muscular or neurological impairment (MMI). When a mouse is placed on a rod that rotates at a speed of 6 rpm, the animal can maintain its equilibrium for long periods of time. The animal is considered toxic if it falls off this rotating rod three times during a […].

[2] = tested on: Lamina I/II spinal cord neurons; assay: Lamina assay: current-clamp recordings on lamina I/II spinal cord neurons; type: cell-based, rat; conditions: lamina I and II neurons
Description: Male Wistar rats (P6 to P9 for voltage-clamp and P15 to P18 for current-clamp recordings) were anaesthetized through intraperitoneal injection of Inactin (Sigma). The spinal cord was then rapidly dissected out and placed in an ice-cold solution protective sucrose solution containing (in mM): 50 sucrose, 92 NaCl, 15 D-Glucose, 26 NaHCO3, 5 KCl, 1.25 NaH2PO4, 0.5 CaCl2, 7 MgSO4, 1 kynurenic acid, and bubbled with 5% CO2/95% O2. The meninges, dura, and dorsal and ventral roots were then removed from the lumbar region of the spinal cord under a dissecting microscope. The “cleaned” lumbar region of the spinal cord was glued to the vibratome stage and immediately immersed in ice cold, bubbled, sucrose solution. For current-clamp recordings, 300 to 350 μm parasagittal slices were cut to preserve the dendritic arbour of lamina I neurons, while 350 to 400 μm transverse slices were prepared for voltage-clamped Nav channel recordings. Slices were allowed to recover for 1 hour at 35° C. in Ringer solution containing (in mM): 125 NaCl, 20 D-Glucose, 26 NaHCO3, 3 KCl, 1.25 NaH2PO4, 2 CaCl2, 1 MgCl2, 1 kynurenic acid, 0.1 picrotoxin, bubbled with 5% CO2/95% O2. The slice recovery chamber was then returned to room temperature (20 to 22° C.) and all recordings were performed at this temperature. […]

[3] = target: T1, human Nav1.5 channel (Homo sapiens, UniProt Q14524); assay: Nav1.5 sodium channel screening assay (PatchXpress, cardiac action potential waveform); type: cell-based
T1 construct: expressed in transfected cells; host or cells: HEK cells
Experimental: Inhibition of the TTX-resistant Nav1.5 sodium channel, a key cardiac ion channel, can have profound effects on the duration and amplitude of the cardiac action potential and can result in arrhythmias and other heart malfunctions. To assess the potential cardiac liability of compounds at an early stage in the drug discovery process, a Nav1.5 sodium channel screening assay is performed on Molecular Device's PatchXpress™ automated electrophysiology platform. Under voltage-calmp conditions, Nav1.5 currents are recorded from HEK cells expressing the human Nav1.5 channel in the absence and presence of increasing concentrations of the test compound to obtain an IC50 value. The external recording solution contained (in mM): 90 TEACl, 50 NaCl, 1.8 CaCl, 1 MgCl2, 10 HEPES, 10 glucose, adjusted to pH 7.4 with TEA-OH and to 300 mOsm with sucrose (if necessary), while the internal patch pipette solution contained (in mM): 129 CsF, 2 MgCl2, 11 EGTA, 10 HEPES, 3 Na2ATP adjusted to pH 7.2 with CsOH and to 290 mOsm with sucrose (if necessary). Nav1.5 channel currents were evoked using a cardiac action potential waveform at 1 Hz, digitized at 31.25 kHz and low-pass filtered at 12 kHz.

[4] = Mouse rotarod assay; type: in vivo; conditions: mouse, in vivo, mice
Experimental: as §1

[5] = Rat Early Pharmacokinetic (EPK) study; type: in vivo; conditions: 3 mg/kg PO, PG (propylene glycol)
Experimental: Male Sprague-Dawley rats were dosed via oral (PO) gavage in the detailed formulation. Blood samples were collected from the animals at 6 timepoints out to 4 hours post-dose. Pharmacokinetic analysis was performed on the LC-MS/MS measured concentrations for each timepoint of each compound.

T1 sequence (Q14524 whole entry): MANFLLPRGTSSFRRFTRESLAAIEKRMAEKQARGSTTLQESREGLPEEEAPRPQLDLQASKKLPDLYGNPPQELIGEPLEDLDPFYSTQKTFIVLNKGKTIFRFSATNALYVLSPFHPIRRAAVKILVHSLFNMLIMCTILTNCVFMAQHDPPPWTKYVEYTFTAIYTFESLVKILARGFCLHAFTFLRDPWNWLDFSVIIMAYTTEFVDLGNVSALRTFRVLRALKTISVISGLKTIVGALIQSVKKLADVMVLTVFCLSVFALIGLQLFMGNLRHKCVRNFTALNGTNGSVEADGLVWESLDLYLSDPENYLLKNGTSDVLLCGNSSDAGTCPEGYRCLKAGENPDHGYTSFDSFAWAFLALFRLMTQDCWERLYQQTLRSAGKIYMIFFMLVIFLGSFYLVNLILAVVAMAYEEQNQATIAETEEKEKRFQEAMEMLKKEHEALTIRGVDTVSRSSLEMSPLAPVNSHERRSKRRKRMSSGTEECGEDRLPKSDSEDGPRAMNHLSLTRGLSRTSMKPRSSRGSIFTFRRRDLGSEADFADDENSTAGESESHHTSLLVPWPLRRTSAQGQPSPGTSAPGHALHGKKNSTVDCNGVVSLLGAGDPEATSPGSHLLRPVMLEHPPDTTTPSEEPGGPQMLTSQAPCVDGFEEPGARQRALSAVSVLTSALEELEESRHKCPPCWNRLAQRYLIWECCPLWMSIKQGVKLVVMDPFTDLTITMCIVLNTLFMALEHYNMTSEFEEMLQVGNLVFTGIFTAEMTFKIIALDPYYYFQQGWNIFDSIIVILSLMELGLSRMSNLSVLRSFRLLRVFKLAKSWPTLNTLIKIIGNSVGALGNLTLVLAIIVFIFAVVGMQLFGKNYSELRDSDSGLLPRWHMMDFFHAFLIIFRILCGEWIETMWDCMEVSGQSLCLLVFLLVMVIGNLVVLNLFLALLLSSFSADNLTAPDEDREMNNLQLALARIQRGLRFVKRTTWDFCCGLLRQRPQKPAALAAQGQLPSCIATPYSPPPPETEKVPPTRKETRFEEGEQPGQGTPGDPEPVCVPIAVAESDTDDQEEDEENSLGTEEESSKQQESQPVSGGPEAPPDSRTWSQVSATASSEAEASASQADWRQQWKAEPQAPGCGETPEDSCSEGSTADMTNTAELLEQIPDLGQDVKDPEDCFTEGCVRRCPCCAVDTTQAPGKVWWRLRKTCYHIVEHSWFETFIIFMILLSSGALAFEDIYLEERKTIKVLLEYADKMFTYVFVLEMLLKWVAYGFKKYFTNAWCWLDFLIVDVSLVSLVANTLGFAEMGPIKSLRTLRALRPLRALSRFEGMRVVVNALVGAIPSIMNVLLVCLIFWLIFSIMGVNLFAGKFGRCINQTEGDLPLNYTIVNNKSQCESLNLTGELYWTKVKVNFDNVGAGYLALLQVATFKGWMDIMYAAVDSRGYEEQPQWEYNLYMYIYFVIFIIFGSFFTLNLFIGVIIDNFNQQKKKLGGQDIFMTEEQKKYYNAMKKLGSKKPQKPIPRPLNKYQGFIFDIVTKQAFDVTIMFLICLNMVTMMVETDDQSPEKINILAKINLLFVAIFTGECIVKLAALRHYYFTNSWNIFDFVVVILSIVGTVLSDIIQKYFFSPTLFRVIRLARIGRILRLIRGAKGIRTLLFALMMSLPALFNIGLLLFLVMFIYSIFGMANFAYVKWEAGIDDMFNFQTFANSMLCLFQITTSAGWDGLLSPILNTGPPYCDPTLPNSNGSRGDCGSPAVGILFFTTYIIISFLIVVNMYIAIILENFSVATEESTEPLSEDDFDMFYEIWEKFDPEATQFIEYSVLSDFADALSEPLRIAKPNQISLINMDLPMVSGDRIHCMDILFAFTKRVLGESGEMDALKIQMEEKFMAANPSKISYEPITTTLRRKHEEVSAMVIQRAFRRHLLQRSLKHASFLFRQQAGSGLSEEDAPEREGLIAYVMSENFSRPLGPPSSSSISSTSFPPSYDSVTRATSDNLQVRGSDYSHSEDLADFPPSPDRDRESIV

Row | Compound | % Impaired ([1]; 0.25 hr) | % Impaired ([1]; 0.5 hr) | % Impaired ([1]; 1 hr) | % Impaired ([1]; 2 hr) | % Impaired ([1]; 4 hr) | % Spike Change (Mean; % change from control) [2] | Inhibition of the cardiac Nav 1.5 channel (statement) ([3]; HEK cells expressing human Nav1.5) | pIC50 ([3]; cardiac action potential waveform at 1 Hz, read-out: HNAV 1.5 CARDIAC AP 1 Hz IC50) | TD50 [4] | Dose Normalized AUC [5] | Dose Normalized Cmax [5] | Tmax ([5]; male, Sprague-Dawley, blood)
1 | O=C1CN(C(=O)CC(c2ccc(Cl)cc2)c2ccc(Cl)cc2)CCN1 [Compound 3, 4-(3,3-bis(4-chlorophenyl)propanoyl)piperazin-2-one] | 0% | 0% | 0% | 0% | 0% | 28.7% |  |  |  |  |  | 
2 | O=C1CN(C(=O)CC(c2ccccc2)c2ccccc2)CCN1 [Compound 4, 4-(3,3-diphenylpropanoyl)piperazin-2-one] | 0% | 0% | 0% | 0% | 0% | −5.3% | did not act as inhibitors | ≤ 3.52 | 370 mg/kg | 522 nM·h | 832 nM | 15 min
